Where two headings read alike, the source gives them in different places.
Tests used:
AChE = AChE (Homo sapiens, UniProt P22303); details: Dixon and Lineweaver–Burk plots
Description: The AChE inhibitory activity was measured spectrophotometrically using the modified Ellman method. First, AChE (0.8 U/mL) was added to a mixture containing sodium phosphate buffer (0.1 M; pH 8.0), DTNB (5 mM), and a test sample, followed by incubation at 37 °C for 15 min in 96-well microplates. Next, ACTI (500 µM; substrate for AChE) was added to the mixture to activate the reaction.
(§1) Dixon plots were obtained in the presence of different concentrations of substrates for AD-related target enzymes. Michaelis–Menten and Lineweaver–Burk plots were constructed in the absence or presence of various concentrations of honokiol.

hBACE1 = molecular target: T1, hBACE1 (Homo sapiens, UniProt P56817); assay: hBACE1 inhibitory activity (FRET assay) and enzyme kinetics; format: biochemical
T1 construct: purchased Invitrogen (Pan Vera, Madison, WI, USA)
Description: The FRET-based assay was used to evaluate the anti-hBACE1 activity and was performed according to the manufacturer’s instructions. […] The percentage BACE1 inhibitory activity was calculated using the following formula:Inhibition (%) = [1 − (S − S0)/(C − C0)] × 100(1) where C is the control fluorescence without the sample after 60 min of incubation, C0 is the control fluorescence at time 0, S is the test sample fluorescence after 60 min of incubation, and S0 is the test sample fluorescence at time 0.
as §1

hQC = molecular target: T2, hQC (Homo sapiens, UniProt Q16769); assay: hQC inhibitory activity (fluorometric assay) and enzyme kinetics; format: biochemical
T2 construct: purchased R&D Systems (Minneapolis, MN, USA)
Description: The inhibitory activity of hQC was evaluated using H-Gln-AMC hydrobromide (400 μM) as the substrate in a fluorometric assay. The buffer consisted of 25 mM HEPES (pH 7.0; adjusted with HCl). The hQC (10 μg/mL) and its auxiliary enzyme pGAPase (50 units) were pre-diluted 1:250 in HEPES. A typical reaction mixture consisted of the substrate, test compounds, and pGAPase. After incubation in black 96-well plates for 10 min at 37 °C, the reaction was initiated by adding hQC solution. The fluorescence intensity of the samples was measured at excitation/emission wavelengths of 380/460 nm, which correlated with the amount of AMC, the end product of the enzymatic process.
(§2) Dixon plots were obtained in the presence of different concentrations of substrates for AD-related target enzymes. Michaelis–Menten and Lineweaver–Burk plots were constructed in the absence or presence of various concentrations of honokiol. The Enzyme Kinetic™ module of SigmaPlot™ version 12.3 (Systat Software, Inc., San Jose, CA, USA) was used to calculate kinetic parameters, such as the Ki, Vmax, and Km.

hGSK-3β = molecular target: T3, hGSK-3β (Homo sapiens, UniProt P49841); assay: hGSK-3β activity (ADP-Glo/Kinase-Glo assay) and enzyme kinetics; format: biochemical
T3 construct: purchased Promega (Madison, WI, USA)
Description: Inhibition of hGSK-3β activity was evaluated using the Kinase-Glo assay. To initiate the reaction, test compound and hGSK-3β (20 ng) were added to each well of a 384-well black plate, followed by the addition of 20 μL of assay buffer containing GSM (hGSK-3β substrate peptide, 25 μM) and ATP (final concentration, 1 μM). […] The reaction mixture was then incubated at 37 °C for 30 min, followed by the addition of the ADP-GloTM reagent (20 μL) to terminate the enzymatic reaction and deplete the remaining ATP. The kinase detection reagent was added to the well plate and glow-type luminescence was recorded using a Synergy H1 microplate reader.
as §2

[1] = set-up: method as in PMID 29925102; details: use of honokiol or herbal formulations containing it; cited from earlier work
Aβ1-42 = Aβ1-42 (Homo sapiens, UniProt P05067); assay: Anti-Aβ1-42 aggregation (preliminary study); format: biochemical; details: compared with honokiol
[2] = Dixon and Lineweaver–Burk plots
[3] = mean ± S.D. of triplicate experiments, read-out: IC50 hQC
[4] = mean ± S.D. of triplicate experiments, read-out: IC50 hGSK-3β

T3 sequence (P49841 whole entry): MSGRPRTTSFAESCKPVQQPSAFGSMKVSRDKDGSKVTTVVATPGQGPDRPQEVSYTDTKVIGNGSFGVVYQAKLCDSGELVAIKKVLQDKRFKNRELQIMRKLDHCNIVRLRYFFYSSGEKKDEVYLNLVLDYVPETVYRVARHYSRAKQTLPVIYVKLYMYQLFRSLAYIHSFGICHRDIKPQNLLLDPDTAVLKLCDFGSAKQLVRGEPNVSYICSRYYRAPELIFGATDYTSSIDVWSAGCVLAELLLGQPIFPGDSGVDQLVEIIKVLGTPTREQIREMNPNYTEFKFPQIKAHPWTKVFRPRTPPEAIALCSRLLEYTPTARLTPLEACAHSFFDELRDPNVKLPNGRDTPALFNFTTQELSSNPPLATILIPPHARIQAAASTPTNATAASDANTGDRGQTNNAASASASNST
T1 sequence (P56817 46-501): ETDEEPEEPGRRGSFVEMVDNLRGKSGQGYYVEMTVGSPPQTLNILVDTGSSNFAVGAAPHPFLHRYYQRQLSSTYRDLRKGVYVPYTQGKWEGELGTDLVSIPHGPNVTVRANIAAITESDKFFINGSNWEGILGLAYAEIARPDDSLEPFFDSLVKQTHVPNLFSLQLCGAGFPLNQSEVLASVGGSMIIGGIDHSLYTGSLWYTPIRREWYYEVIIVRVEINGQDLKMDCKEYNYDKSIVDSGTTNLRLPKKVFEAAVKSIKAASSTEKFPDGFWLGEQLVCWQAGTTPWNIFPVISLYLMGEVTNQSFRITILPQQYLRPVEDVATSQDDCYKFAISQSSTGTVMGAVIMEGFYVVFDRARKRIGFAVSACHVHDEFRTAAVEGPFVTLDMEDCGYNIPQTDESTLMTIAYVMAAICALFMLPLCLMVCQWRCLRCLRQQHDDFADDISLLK
T2 sequence (Q16769 29-361): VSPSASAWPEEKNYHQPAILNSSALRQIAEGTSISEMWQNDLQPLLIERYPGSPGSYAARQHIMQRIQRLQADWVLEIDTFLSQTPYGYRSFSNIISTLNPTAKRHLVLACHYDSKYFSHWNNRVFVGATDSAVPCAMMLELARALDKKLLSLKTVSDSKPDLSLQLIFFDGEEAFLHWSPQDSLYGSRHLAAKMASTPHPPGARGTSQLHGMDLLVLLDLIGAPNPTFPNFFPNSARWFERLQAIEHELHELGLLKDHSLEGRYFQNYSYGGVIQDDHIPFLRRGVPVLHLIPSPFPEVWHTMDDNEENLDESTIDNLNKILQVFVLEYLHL
Sequence of Aβ1-42 (P05067 672-713 limits assumed): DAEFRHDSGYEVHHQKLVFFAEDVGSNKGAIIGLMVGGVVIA
Sequence of AChE (P22303 32-614): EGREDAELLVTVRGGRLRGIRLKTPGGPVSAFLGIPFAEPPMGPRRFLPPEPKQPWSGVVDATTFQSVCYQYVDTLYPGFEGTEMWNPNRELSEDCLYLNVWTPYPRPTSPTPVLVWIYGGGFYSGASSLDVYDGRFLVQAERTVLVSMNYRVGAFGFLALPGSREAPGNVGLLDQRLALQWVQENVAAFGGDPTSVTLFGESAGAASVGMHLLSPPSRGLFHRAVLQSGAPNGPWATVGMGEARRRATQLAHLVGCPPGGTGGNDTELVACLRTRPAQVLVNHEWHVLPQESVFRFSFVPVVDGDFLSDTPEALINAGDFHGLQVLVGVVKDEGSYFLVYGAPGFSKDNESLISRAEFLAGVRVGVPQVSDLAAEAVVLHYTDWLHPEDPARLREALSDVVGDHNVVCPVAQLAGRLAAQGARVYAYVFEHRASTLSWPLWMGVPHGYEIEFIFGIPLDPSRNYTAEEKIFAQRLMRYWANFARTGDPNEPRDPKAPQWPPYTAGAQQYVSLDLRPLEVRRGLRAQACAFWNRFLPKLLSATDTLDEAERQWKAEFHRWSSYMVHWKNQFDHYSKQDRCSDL

## C=CCc1ccc(O)c(-c2ccc(O)c(CC=C)c2)c1 [Honokiol (39), 3,5′-diallyl-4,2′-dihydroxybiphenyl]
AChE
  Inhibition Mode AChE: Non-competitive
hBACE1
  IC50: 20.6 ± 0.8 µM
  Ki: 27.3 µM
hBACE1; [2]
  Inhibition Mode hBACE1: Non-competitive
hQC
  IC50: 90.7 ± 1.07 µM
  Ki: 49.4 µM
hQC; [2]
  Inhibition Mode hQC: Competitive
hGSK-3β
  IC50: 6.7 ± 0.03 µM
  Ki: 9.8 µM
hGSK-3β; [2]
  Inhibition Mode hGSK-3β: Non-competitive
[1]
  side effects in humans: no side effects have been reported in humans

## C=CCc1ccc(O)c(-c2cc(CC=C)ccc2O)c1 [Magnolol (51), 5,5′-diallyl-2,2′-dihydroxybiphenyl]
hBACE1; mean ± S.D. of triplicate experiments, read-out: IC50 hBACE1
  IC50: > 100 µM
Aβ1-42
  anti-Aβ1-42 aggregation effects: lower anti-Aβ1-42 aggregation effects than that of honokiol
hQC; [3]
  IC50: > 100 µM
hGSK-3β; [4]
  IC50: > 100 µM

## Oc1ccc(/C=C/c2cc(O)cc(O)c2)cc1 [resveratrol, reference compound]
hQC; [3]
  IC50: 30.9 µM

## C[C@@H]1O[C@@H](OC[C@H]2O[C@@H](Oc3c(-c4ccc(O)c(O)c4)oc4cc(O)cc(O)c4c3=O)[C@H](O)[C@@H](O)[C@@H]2O)[C@H](O)[C@H](O)[C@H]1O [rutin, reference compound]
hGSK-3β; [4]
  IC50: 10.8 µM
